These results are taken from US10906915B2, “Substituted pyrazoloazepin-4-ones and their use as phosphodiesterase inhibitors” (LEO Pharma A/S, priority 2016, dated 2021).

The target in this assay is human PDE4D catalytic domain (UniProt no. Q08499) (Homo sapiens (Human), UniProt Q08499). The assay can be described thus: PDE4 assay (TR-FRET, FAM-cAMP cleavage). The class given is biochemical. As to conditions: human PDE4D catalytic domain; molar concentration giving 50% inhibition of substrate cleavage; read-out: PDE4 IC50 range. Summed up: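 PDE4D catalytic domain ([…]) was incubated with unlabelled cAMP plus FAM-cAMP and titrated compound, stopped with binding buffer of metal-ion nanoparticles and Tb donor. AMP generation read by TR-FRET; IC50 as 50% inhibition of cleavage versus controls, reported as nM ranges.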
Sequence of human PDE4D catalytic domain (Q08499 380-740 limits assumed): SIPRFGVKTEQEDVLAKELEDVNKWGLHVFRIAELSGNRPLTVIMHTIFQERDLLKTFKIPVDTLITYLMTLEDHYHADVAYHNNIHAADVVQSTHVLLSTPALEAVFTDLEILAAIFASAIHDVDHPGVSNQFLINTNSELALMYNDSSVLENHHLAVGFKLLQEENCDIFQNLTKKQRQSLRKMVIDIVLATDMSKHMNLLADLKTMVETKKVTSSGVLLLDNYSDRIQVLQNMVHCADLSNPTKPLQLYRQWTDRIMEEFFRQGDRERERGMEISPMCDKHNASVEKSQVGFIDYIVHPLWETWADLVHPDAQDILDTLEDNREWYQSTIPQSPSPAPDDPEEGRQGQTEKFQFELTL
As a reminder, the IC50 is the concentration at which inhibition is half-maximal. Take `CCc1nn(C[C@@H](C)COC(=O)c2ccc(C(F)(F)F)cc2)c2c1C(=O)NCC1(CCOCC1)C2` [Example 212, [(2R)-3-(3-ethyl-4-oxo-spiro[6,8-dihydro-5H-pyrazolo[4,3-c]azepine-7,4′-tetrahydropyran]-1-yl)-2-methyl-propyl] 4-(trifluoromethyl)benzoate]: the IC50 is less than 100 nM. As to `CCc1nn(C[C@@H](C)COC(=O)c2cccc(S(C)(=O)=O)c2)c2c1C(=O)NCC1(CCOCC1)C2` [Example 213, [(2R)-3-(3-ethyl-4-oxo-spiro[6,8-dihydro-5H-pyrazolo[4,3-c]azepine-7,4′-tetrahydropyran]-1-yl)-2-methyl-propyl] 3-methylsulfonylbenzoate], the IC50 was less than 100 nM.

Take `CCc1nn(C[C@@H](C)COC(=O)c2ccccc2S(C)(=O)=O)c2c1C(=O)NCC1(CCOCC1)C2` [Example 214, [(2R)-3-(3-ethyl-4-oxo-spiro[6,8-dihydro-5H-pyrazolo[4,3-c]azepine-7,4′-tetrahydropyran]-1-yl)-2-methyl-propyl] 2-methylsulfonylbenzoate]: the IC50 is less than 100 nM. As to `CCc1nn(C[C@@H](C)COC(=O)c2ccc(S(N)(=O)=O)cc2)c2c1C(=O)NCC1(CCOCC1)C2` [Example 215, [(2R)-3-(3-ethyl-4-oxo-spiro[6,8-dihydro-5H-pyrazolo[4,3-c]azepine-7,4′-tetrahydropyran]-1-yl)-2-methyl-propyl] 4-sulfamoylbenzoate], the IC50 was less than 100 nM.

Take `CCc1nn(C[C@@H](C)COC(=O)c2cccc(C(F)(F)F)c2C)c2c1C(=O)NCC1(CCOCC1)C2` [Example 217, [(2R)-3-(3-ethyl-4-oxo-spiro[6,8-dihydro-5H-pyrazolo[4,3-c]azepine-7,4′-tetrahydropyran]-1-yl)-2-methyl-propyl] 2-methyl-3-(trifluoromethyl)benzoate]: the IC50 was less than 100 nM. `CCc1nn(C[C@@H](C)COC(=O)c2cc(C(F)(F)F)ccc2C)c2c1C(=O)NCC1(CCOCC1)C2` [Example 218, [(2R)-3-(3-ethyl-4-oxo-spiro[6,8-dihydro-5H-pyrazolo[4,3-c]azepine-7,4′-tetrahydropyran]-1-yl)-2-methyl-propyl] 2-methyl-5-(trifluoromethyl)benzoate]: the half-inhibitory concentration (IC50) was less than 100 nM. For the compound `CCc1nn(C[C@@H](C)COC(=O)c2ccc(C(F)(F)F)c(F)c2)c2c1C(=O)NCC1(CCOCC1)C2` [Example 219, [(2R)-3-(3-ethyl-4-oxo-spiro[6,8-dihydro-5H-pyrazolo[4,3-c]azepine-7,4′-tetrahydropyran]-1-yl)-2-methyl-propyl] 3-fluoro-4-(trifluoromethyl)benzoate], the IC50 is less than 100 nM. With `CCc1nn(C[C@@H](C)COC(=O)c2cc(C(F)(F)F)ccc2F)c2c1C(=O)NCC1(CCOCC1)C2` [Example 220, [(2R)-3-(3-ethyl-4-oxo-spiro[6,8-dihydro-5H-pyrazolo[4,3-c]azepine-7,4′-tetrahydropyran]-1-yl)-2-methyl-propyl] 2-fluoro-5-(trifluoromethyl)benzoate], the 50% inhibitory concentration (IC50) is less than 100 nM. As for `CCc1nn(C[C@@H](C)COC(=O)c2ccc(C(F)(F)F)cc2F)c2c1C(=O)NCC1(CCOCC1)C2` [Example 221, [(2R)-3-(3-ethyl-4-oxo-spiro[6,8-dihydro-5H-pyrazolo[4,3-c]azepine-7,4′-tetrahydropyran]-1-yl)-2-methyl-propyl] 2-fluoro-4-(trifluoromethyl)benzoate], the IC50 was less than 100 nM. As to `CCc1nn(C[C@@H](C)COC(=O)c2ccc(F)cc2C(F)(F)F)c2c1C(=O)NCC1(CCOCC1)C2` [Example 222, [(2R)-3-(3-ethyl-4-oxo-spiro[6,8-dihydro-5H-pyrazolo[4,3-c]azepine-7,4′-tetrahydropyran]-1-yl)-2-methyl-propyl] 4-fluoro-2-(trifluoromethyl)benzoate], the IC50 is less than 100 nM. Turning to `CCc1nn(C[C@@H](C)COC(=O)c2cc(F)ccc2C(F)(F)F)c2c1C(=O)NCC1(CCOCC1)C2` [Example 223, [(2R)-3-(3-ethyl-4-oxo-spiro[6,8-dihydro-5H-pyrazolo[4,3-c]azepine-7,4′-tetrahydropyran]-1-yl)-2-methyl-propyl] 5-fluoro-2-(trifluoromethyl)benzoate], the IC50 was less than 100 nM. For `CCc1nn(C[C@@H](C)COC(=O)c2ccc(F)c(C(F)(F)F)c2)c2c1C(=O)NCC1(CCOCC1)C2` [Example 224, [(2R)-3-(3-ethyl-4-oxo-spiro[6,8-dihydro-5H-pyrazolo[4,3-c]azepine-7,4′-tetrahydropyran]-1-yl)-2-methyl-propyl] 4-fluoro-3-(trifluoromethyl)benzoate], the IC50 was less than 100 nM. As to `CCc1nn(C[C@@H](C)COC(=O)c2cc(F)cc(C(F)(F)F)c2)c2c1C(=O)NCC1(CCOCC1)C2` [Example 225, [(2R)-3-(3-ethyl-4-oxo-spiro[6,8-dihydro-5H-pyrazolo[4,3-c]azepine-7,4′-tetrahydropyran]-1-yl)-2-methyl-propyl] 3-fluoro-5-(trifluoromethyl)benzoate], the IC50 was less than 100 nM. The same measure for `CCc1nn(C[C@@H](C)COC(=O)c2cccc(S(=O)(=O)CC)c2)c2c1C(=O)NCC1(CCOCC1)C2` [Example 226, [(2R)-3-(3-ethyl-4-oxo-spiro[6,8-dihydro-5H-pyrazolo[4,3-c]azepine-7,4′-tetrahydropyran]-1-yl)-2-methyl-propyl] 3-ethylsulfonylbenzoate]: less than 100 nM; for `CCc1nn(C[C@@H](C)COC(=O)c2ccc(S(=O)(=O)CC)cc2)c2c1C(=O)NCC1(CCOCC1)C2` [Example 227, [(2R)-3-(3-ethyl-4-oxo-spiro[6,8-dihydro-5H-pyrazolo[4,3-c]azepine-7,4′-tetrahydropyran]-1-yl)-2-methyl-propyl] 4-ethylsulfonylbenzoate]: less than 100 nM. The figure for `CCc1nn(C[C@@H](C)COC(=O)c2cccc(S(=O)(=O)NC)c2)c2c1C(=O)NCC1(CCOCC1)C2` [Example 228, [(2R)-3-(3-ethyl-4-oxo-spiro[6,8-dihydro-5H-pyrazolo[4,3-c]azepine-7,4′-tetrahydropyran]-1-yl)-2-methyl-propyl] 3-(methylsulfamoyl)benzoate] is less than 100 nM. For the compound `CCc1nn(C[C@@H](C)COC(=O)c2ccc(OC)cc2C(F)(F)F)c2c1C(=O)NCC1(CCOCC1)C2` [Example 229, [(2R)-3-(3-ethyl-4-oxo-spiro[6,8-dihydro-5H-pyrazolo[4,3-c]azepine-7,4′-tetrahydropyran]-1-yl)-2-methyl-propyl] 4-methoxy-2-(trifluoromethyl)benzoate], the IC50 is less than 100 nM. Take `CCc1nn(C[C@@H](C)COC(=O)c2ccc(OC)c(C(F)(F)F)c2)c2c1C(=O)NCC1(CCOCC1)C2` [Example 230, [(2R)-3-(3-ethyl-4-oxo-spiro[6,8-dihydro-5H-pyrazolo[4,3-c]azepine-7,4′-tetrahydropyran]-1-yl)-2-methyl-propyl] 4-methoxy-3-(trifluoromethyl)benzoate]: the IC50 was less than 100 nM. Turning to `CCc1nn(C[C@@H](C)COC(=O)c2cc(OC)ccc2C(F)(F)F)c2c1C(=O)NCC1(CCOCC1)C2` [Example 231, [(2R)-3-(3-ethyl-4-oxo-spiro[6,8-dihydro-5H-pyrazolo[4,3-c]azepine-7,4′-tetrahydropyran]-1-yl)-2-methyl-propyl] 5-methoxy-2-(trifluoromethyl)benzoate], the IC50 was less than 100 nM.
